Experimental data taken from US8211662B2, “Nitroreductase enzymatic substrates” (Biomerieux, priority 2007, dated 2012).

Legend:
[1] = system: Bacillus subtilis NCTC 9372; test: Nitroreductase detection on Columbia agar, colonies read under UV; format: cell-based; parameters: key: − = no fluorescence detected; +/− = weak fluorescence; + = medium fluorescence; ++ = strong fluorescence; conditions: 100 mg/l in Columbia agar, 24 h 37° C., UV 360-365 nm
Procedure: (§1) A mass of 40 mg of each substrate was dissolved in 4 ml of dimethylformamide (DMF). This solution was entirely taken up in 400 ml of Columbia agar autoclaved beforehand and kept molten at 50° C. The final concentration for each substrate was 100 mg/l.
(§2) Each of the media was distributed into Petri dishes 90 mm in diameter, in a proportion of 20 ml per dish.
(§3) 18 microorganism strains derived from collections and belonging to various species of bacteria and of yeasts were inoculated onto these media by semi-quantitative isolation of 10 μl of a suspension at 0.5 McFarland diluted to 1/20. The media were incubated for 24 hours at 37° C., then the colonies formed were examined visually under UV illumination at 360-365 nm.

[2] = system: Candida albicans ATCC 90028; test: as above; format: cell-based; parameters: key: − = no fluorescence detected; +/− = weak fluorescence; + = medium fluorescence; ++ = strong fluorescence; conditions: 100 mg/l in Columbia agar, 24 h 37° C., UV 360-365 nm
Procedure: as §1, §2, §3

[3] = system: Enterobacter cloacae NCTC 11936; test: as above; format: cell-based; parameters: key: − = no fluorescence detected; +/− = weak fluorescence; + = medium fluorescence; ++ = strong fluorescence; conditions: 100 mg/l in Columbia agar, 24 h 37° C., UV 360-365 nm
Procedure: as §1, §2, §3

[4] = system: Enterococcus faecalis NCTC 775; test: as above; format: cell-based; parameters: key: − = no fluorescence detected; +/− = weak fluorescence; + = medium fluorescence; ++ = strong fluorescence; conditions: 100 mg/l in Columbia agar, 24 h 37° C., UV 360-365 nm
Procedure: as §1, §2, §3

[5] = system: Escherichia coli NCTC 10418; test: as above; format: cell-based; parameters: key: − = no fluorescence detected; +/− = weak fluorescence; + = medium fluorescence; ++ = strong fluorescence; conditions: 100 mg/l in Columbia agar, 24 h 37° C., UV 360-365 nm
Procedure: as §1, §2, §3

[6] = system: Listeria monocytogenes NCTC 11994; test: as above; format: cell-based; parameters: key: − = no fluorescence detected; +/− = weak fluorescence; + = medium fluorescence; ++ = strong fluorescence; conditions: 100 mg/l in Columbia agar, 24 h 37° C., UV 360-365 nm
Procedure: as §1, §2, §3

[7] = system: Pseudomonas aeruginosa NCTC 10662; test: as above; format: cell-based; parameters: key: − = no fluorescence detected; +/− = weak fluorescence; + = medium fluorescence; ++ = strong fluorescence; conditions: 100 mg/l in Columbia agar, 24 h 37° C., UV 360-365 nm
Procedure: as §1, §2, §3

[8] = system: Serratia marcescens NCTC 10211; test: as above; format: cell-based; parameters: key: − = no fluorescence detected; +/− = weak fluorescence; + = medium fluorescence; ++ = strong fluorescence; conditions: 100 mg/l in Columbia agar, 24 h 37° C., UV 360-365 nm
Procedure: as §1, §2, §3

[9] = system: Staphylococcus aureus NCTC 6571; test: as above; format: cell-based; parameters: key: − = no fluorescence detected; +/− = weak fluorescence; + = medium fluorescence; ++ = strong fluorescence; conditions: 100 mg/l in Columbia agar, 24 h 37° C., UV 360-365 nm
Procedure: as §1, §2, §3

[10] = system: Staphylococcus epidermidis NCTC 11047; test: as above; format: cell-based; parameters: key: − = no fluorescence detected; +/− = weak fluorescence; + = medium fluorescence; ++ = strong fluorescence; conditions: 100 mg/l in Columbia agar, 24 h 37° C., UV 360-365 nm
Procedure: as §1, §2, §3

[11] = system: Streptococcus pyogenes NCTC 8306; test: as above; format: cell-based; parameters: key: − = no fluorescence detected; +/− = weak fluorescence; + = medium fluorescence; ++ = strong fluorescence; conditions: 100 mg/l in Columbia agar, 24 h 37° C., UV 360-365 nm
Procedure: as §1, §2, §3

[12] = system: Yersinia enterocolitica NCTC 11176; test: as above; format: cell-based; parameters: key: − = no fluorescence detected; +/− = weak fluorescence; + = medium fluorescence; ++ = strong fluorescence; conditions: 100 mg/l in Columbia agar, 24 h 37° C., UV 360-365 nm
Procedure: as §1, §2, §3

[13] = system: Acinetobacter baumanii ATCC 19606; test: as above; format: cell-based; parameters: key to Intensity of fluorescence, Acinetobacter baumanii ATCC 19606 / Intensity of the fluorescence, Acinetobacter baumanii ATCC 19606: − = no fluorescence detected; +/− = weak fluorescence; + = medium fluorescence; ++ = strong fluorescence; conditions: for Intensity of fluorescence, Acinetobacter baumanii ATCC 19606: 100 mg/l in Columbia agar, 24 h 37° C., UV 360-365 nm; for Distinguishing Pseudomonas aeruginosa from Acinetobacter baumanii: table 2
Procedure: as §1, §2, §3

[14] = system: Salmonella typhimurium NCTC 74; test: as above; format: cell-based; parameters: key to Intensity of fluorescence, Salmonella typhimurium NCTC 74 / F: fluorescence (intensity), Salmonella typhimurium NCTC 74 / Intensity of the fluorescence, Salmonella typhimurium NCTC 74: − = no fluorescence detected; +/− = weak fluorescence; + = medium fluorescence; ++ = strong fluorescence; conditions: for Intensity of fluorescence, Salmonella typhimurium NCTC 74: 100 mg/l in Columbia agar, 24 h 37° C., UV 360-365 nm; for Salmonella typhimurium result with the substrate: table 2
Procedure: as §1, §2, §3

[15] = system: Morganella morganii 462403 (wild); test: as above; format: cell-based; parameters: key to Intensity of fluorescence, Morganella morganii 462403 / F: fluorescence (intensity), Morganella morganii 462403 (wild) / Intensity of the fluorescence, Morganella morganii 462403 (wild): − = no fluorescence detected; +/− = weak fluorescence; + = medium fluorescence; ++ = strong fluorescence; conditions: for Intensity of fluorescence, Morganella morganii 462403: 100 mg/l in Columbia agar, 24 h 37° C., UV 360-365 nm
Procedure: as §1, §2, §3

[16] = system: MRSA NCTC 11939; test: as above; format: cell-based, Staphylococcus aureus; parameters: key: − = no fluorescence detected; +/− = weak fluorescence; + = medium fluorescence; ++ = strong fluorescence; conditions: 100 mg/l in Columbia agar, 24 h 37° C., UV 360-365 nm
Procedure: as §1, §2, §3

[17] = system: Candida glabrata NCPF 3943; test: as above; format: cell-based; parameters: key to Intensity of fluorescence, Candida glabrata NCPF3943 / F: fluorescence (intensity), Candida glabrata NCPF 3943 / Intensity of the fluorescence, Candida glabrata NCPF 3943: − = no fluorescence detected; +/− = weak fluorescence; + = medium fluorescence; ++ = strong fluorescence; conditions: 100 mg/l in Columbia agar, 24 h 37° C., UV 360-365 nm
Procedure: as §1, §2, §3

[18] = system: S. aureus (including MRSA) 10 strains; test: Detection of various strains of S. aureus in the presence of substrates; format: cell-based, Staphylococcus aureus; conditions: for No. of strains detected, S. aureus (including MRSA): 10 strains
[19] = system: S. epidermidis 2 strains; test: as above; format: cell-based
Procedure: as §1, §2
18 microorganism strains derived from collections and belonging to various species of bacteria and of yeasts were inoculated onto these media by semi-quantitative isolation of 10 μl of a suspension at 0.5 McFarland diluted to 1/20. […]

[20] = system: Staph spp 12 strains; test: as above; format: cell-based
[21] = system: Enterococcus 6 strains; test: as above; format: cell-based

| SMILES | Intensity of fluorescence, Bacillus subtilis NCTC 9372 [1] | Intensity of fluorescence, Candida albicans ATCC 90028 [2] | Intensity of fluorescence, Enterobacter cloacae NCTC 11936 [3] | Intensity of fluorescence, Enterococcus faecalis NCTC 775 [4] | Intensity of fluorescence, Escherichia coli NCTC 10418 [5] | Intensity of fluorescence, Listeria monocytogenes NCTC 11994 [6] | Intensity of fluorescence, Pseudomonas aeruginosa NCTC 10662 [7] | Intensity of fluorescence, Serratia marcescens NCTC 10211 [8] | Intensity of fluorescence, Staphylococcus aureus NCTC 6571 [9] | Intensity of fluorescence, Staphylococcus epidermidis NCTC 11047 [10] | Intensity of fluorescence, Streptococcus pyogenes NCTC 8306 [11] | Distinguishing or identifying Staphylococcus aureus strains, in particular MRSA, from most of the other Gram-positive bacterial strains [18] | No. of strains detected, S. aureus (including MRSA) ([18]; 24 h) | No. of strains detected, S. aureus (including MRSA) ([18]; 48 h) | No. of strains detected, S. epidermidis ([19]; 24 h) | No. of strains detected, S. epidermidis ([19]; 48 h) | No. of strains detected, Staph spp ([20]; 24 h) | No. of strains detected, Staph spp ([20]; 48 h) | No. of strains detected, Enterococcus ([21]; 24 h) | No. of strains detected, Enterococcus ([21]; 48 h) | further results |
| --- | --- | --- | --- | --- | --- | --- | --- | --- | --- | --- | --- | --- | --- | --- | --- | --- | --- | --- | --- | --- | --- |
| O=[N+]([O-])c1ccccc1-c1nc2cc(Cl)ccc2o1 [Substrate 2] | − | − | + | − | +^1 | − | − | + | + | − | − | make it possible to distinguish or identify the Staphylococcus aureus strains | 10 | 10 | 0 | 2 | 12 | 12 | 0 | 1 | Intensity of fluorescence, Yersinia enterocolitica NCTC 11176 [12]: +/−; Intensity of fluorescence, Acinetobacter baumanii ATCC 19606 [13]: +/−; Distinguishing Pseudomonas aeruginosa from Acinetobacter baumanii [13]: make it possible to distinguish Pseudomonas aeruginosa from Acinetobacter baumanii; Intensity of fluorescence, Salmonella typhimurium NCTC 74 [14]: −; Salmonella typhimurium result with the substrate [14]: negative; Intensity of fluorescence, Morganella morganii 462403 [15]: +/−; Intensity of fluorescence, Staphylococcus aureus NCTC 11939 [16]: +; Intensity of fluorescence, Candida glabrata NCPF3943 [17]: − |
| O=[N+]([O-])c1ccc(F)cc1-c1nc2ccccc2o1 [Substrate 7] | − | − | ++ | − | ++ | − | − | ++ | ++ | − | − | make it possible to distinguish or identify the Staphylococcus aureus strains | 10 | 10 | 0 | 2 | 12 | 12 | 0 | 1 | Intensity of fluorescence, Yersinia enterocolitica NCTC 11176 [12]: −; Intensity of fluorescence, Acinetobacter baumanii ATCC 19606 [13]: +; Distinguishing Pseudomonas aeruginosa from Acinetobacter baumanii [13]: make it possible to distinguish Pseudomonas aeruginosa from Acinetobacter baumanii; Intensity of fluorescence, Salmonella typhimurium NCTC 74 [14]: ++; Salmonella typhimurium result with the substrate [14]: strongly positive; Intensity of fluorescence, Morganella morganii 462403 [15]: ++; Intensity of fluorescence, Staphylococcus aureus NCTC 11939 [16]: ++; Intensity of fluorescence, Candida glabrata NCPF3943 [17]: − |
| O=[N+]([O-])c1ccccc1-c1nc2ccccc2n1CCc1ccccc1 [Substrate 12] | − | − | − | − | − | − | − | − | − | − | − |  |  |  |  |  |  |  |  |  | Intensity of fluorescence, Yersinia enterocolitica NCTC 11176 [12]: −; Intensity of fluorescence, Acinetobacter baumanii ATCC 19606 [13]: −; Intensity of fluorescence, Salmonella typhimurium NCTC 74 [14]: −; Salmonella typhimurium result with the substrate [14]: negative; Intensity of fluorescence, Morganella morganii 462403 [15]: +/−; Specificity of the substrate ([15]; table 2): specific for Morganella morganii; Intensity of fluorescence, Staphylococcus aureus NCTC 11939 [16]: −; Intensity of fluorescence, Candida glabrata NCPF3943 [17]: − |
| O=[N+]([O-])c1ccc(Cl)cc1-c1nc2ccccc2o1 [Substrate 4] |  |  |  |  |  |  |  |  |  |  |  | make it possible to distinguish or identify the Staphylococcus aureus strains | 10 | 10 | 0 | 2 | 12 | 12 | 0 | 1 |  |
| O=[N+]([O-])c1ccc(Cl)cc1-c1nc2ccccc2s1 [Substrate 21] |  |  |  |  |  |  |  |  |  |  |  | make it possible to distinguish or identify the Staphylococcus aureus strains | 10 | 10 | 0 | 2 | 12 | 12 | 0 | 1 |  |
| Cc1ccc2oc(-c3ccccc3[N+](=O)[O-])nc2c1 [Substrate 3] |  |  |  |  |  |  |  |  |  |  |  | make it possible to distinguish or identify the Staphylococcus aureus strains | 10 | 10 | 0 | 2 | 12 | 12 | 0 | 1 |  |
| CN1CCN(c2ccc([N+](=O)[O-])c(-c3nc4ccccc4o3)c2)CC1 [Substrate 8] |  |  |  |  |  |  |  |  |  |  |  | make it possible to distinguish or identify the Staphylococcus aureus strains | 10 | 10 | 0 | 2 | 12 | 12 | 0 | 1 |  |
